According to patent publication US8530489B2 (Vertex Pharmaceuticals Incorporated, priority 2006, dated 2013):

What follows are compounds tested against PLK1 (Homo sapiens, UniProt P53350) (assay: PLK1 Inhibition Assay I (radioactive-phosphate incorporation)). Settings: Ki(app); PLK1 Inhibition Assay I or II (table does not say which).
Sequence of PLK1 (P53350 whole entry): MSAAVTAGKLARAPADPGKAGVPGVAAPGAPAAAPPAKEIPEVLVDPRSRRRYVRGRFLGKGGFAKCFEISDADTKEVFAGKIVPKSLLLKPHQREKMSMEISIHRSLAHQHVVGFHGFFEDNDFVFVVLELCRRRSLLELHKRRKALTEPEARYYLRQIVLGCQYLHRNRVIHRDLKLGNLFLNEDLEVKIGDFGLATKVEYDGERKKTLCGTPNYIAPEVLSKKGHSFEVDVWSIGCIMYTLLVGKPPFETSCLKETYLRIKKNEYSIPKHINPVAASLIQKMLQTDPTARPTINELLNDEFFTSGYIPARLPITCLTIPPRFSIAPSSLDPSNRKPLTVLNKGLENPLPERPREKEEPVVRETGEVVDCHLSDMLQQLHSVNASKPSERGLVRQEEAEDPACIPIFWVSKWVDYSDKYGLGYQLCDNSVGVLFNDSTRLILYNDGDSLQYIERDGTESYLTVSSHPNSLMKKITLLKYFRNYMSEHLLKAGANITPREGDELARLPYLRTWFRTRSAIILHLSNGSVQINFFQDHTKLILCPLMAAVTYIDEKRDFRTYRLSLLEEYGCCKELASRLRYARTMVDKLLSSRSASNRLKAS
Type: biochemical
How it was run: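 Ki(app) values came from non-linear regression of initial rates after background subtraction, with phosphopeptide measured by phosphocellulose filter binding and scintillation counting. PLK1 at 2 nM was preincubated with compound (typically from 10 μM, 2-fold dilutions) for 10 min, then run 240 min at 25° C with 350 μM [γ-33P]ATP and 450 μM peptide substrate in HEPES pH 7.5 buffer.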
In the case of `C[C@@H](Nc1ncc(C#N)c(-c2c[nH]c3ncc(C(F)(F)F)cc23)n1)c1ccc(NS(=O)(=O)C2CC2)cc1` [Compound I-168, N-(4-((1R)-1-(5-cyano-4-(5-(trifluoromethyl)-1H-pyrrolo[2,3-b]pyridin-3-yl)pyrimidin-2-ylamino)ethyl)phenyl)cyclopropanesulfonamide], the Ki is reported as < 3 nM. For `CC[C@@H](C)Nc1ncc(C#N)c(-c2c[nH]c3ncc(C(F)(F)F)cc23)n1` [Compound I-83, 2-(sec-butylamino)-4-(5-(trifluoromethyl)-1H-pyrrolo[2,3-b]pyridin-3-yl)pyrimidine-5-carbonitrile], the Ki was < 3 nM. Compound `N#Cc1cnc(NCC2(O)CCCCC2)nc1-c1c[nH]c2ncc(C(F)(F)F)cc12` [Compound I-49, 2-((1-hydroxycyclohexyl)methylamino)-4-(5-(trifluoromethyl)-1H-pyrrolo[2,3-b]pyridin-3-yl)pyrimidine-5-carbonitrile] has a Ki of 3 to 40 nM. For `CC[C@H](O)C(=O)N1CCC([C@@H](C)Nc2ncc(C#N)c(-c3c[nH]c4ncc(C(F)(F)F)cc34)n2)CC1` [Compound I-217, 2-((R)-1-(1-((S)-2-hydroxybutanoyl)piperidin-4-yl)ethylamino)-4-(5-(trifluoromethyl)-1H-pyrrolo[2,3-b]pyridin-3-yl)pyrimidine-5-carbonitrile], the Ki was < 3 nM. In the case of `CC(C)(C)[C@@H](CO)Nc1ncc(C#N)c(-c2c[nH]c3ncc(C(F)(F)F)cc23)n1` [Compound I-111, 2-((S)-1-hydroxy-3,3-dimethylbutan-2-ylamino)-4-(5-(trifluoromethyl)-1H-pyrrolo[2,3-b]pyridin-3-yl)pyrimidine-5-carbonitrile], the Ki is reported as < 3 nM. `C[C@@H](Nc1ncc(C#N)c(-c2c[nH]c3ncc(C(F)(F)F)cc23)n1)C1CCN(C(=O)[C@H]2CCN2)CC1` [Compound I-259, 2-((R)-1-(1-((R)-azetidine-2-carbonyl)piperidin-4-yl)ethylamino)-4-(5-(trifluoromethyl)-1H-pyrrolo[2,3-b]pyridin-3-yl)pyrimidine-5-carbonitrile] was tested, and the Ki was < 3 nM. In the case of `C[C@H](O)C(=O)N1CCC([C@@H](C)Nc2ncc(C#N)c(-c3c[nH]c4ncc(C(F)(F)F)cc34)n2)CC1` [Compound I-228, 2-((R)-1-(1-((S)-2-hydroxypropanoyl)piperidin-4-yl)ethylamino)-4-(5-(trifluoromethyl)-1H-pyrrolo[2,3-b]pyridin-3-yl)pyrimidine-5-carbonitrile], the Ki is reported as < 3 nM. For `C[C@@H](Nc1ncc(C#N)c(-c2c[nH]c3ncc(C(F)(F)F)cc23)n1)C1CCN(C(=O)[C@@H]2CCCN2)CC1` [Compound I-236, 2-((R)-1-(1-((S)-pyrrolidine-2-carbonyl)piperidin-4-yl)ethylamino)-4-(5-(trifluoromethyl)-1H-pyrrolo[2,3-b]pyridin-3-yl)pyrimidine-5-carbonitrile], the Ki was < 3 nM. For `N#Cc1cnc(NC(CO)C2CCOC2)nc1-c1c[nH]c2ncc(C(F)(F)F)cc12` (stereo not drawn) [Compound I-104, 2-(2-hydroxy-1-(tetrahydrofuran-3-yl)ethylamino)-4-(5-(trifluoromethyl)-1H-pyrrolo[2,3-b]pyridin-3-yl)pyrimidine-5-carbonitrile], the Ki was > 40 nM. For `CC(=O)N1CCC(C(C)Nc2ncc(C#N)c(-c3c[nH]c4ncc(C(F)(F)F)cc34)n2)CC1` (stereo not drawn) [Compound I-101, 2-(1-(1-acetylpiperidin-4-yl)ethylamino)-4-(5-(trifluoromethyl)-1H-pyrrolo[2,3-b]pyridin-3-yl)pyrimidine-5-carbonitrile], the Ki was < 3 nM. `CC(C)S(=O)(=O)N1CCC([C@@H](C)Nc2ncc(C#N)c(-c3c[nH]c4ncc(C(F)(F)F)cc34)n2)CC1` [Compound I-213, 2-((R)-1-(1-(isopropylsulfonyl)piperidin-4-yl)ethylamino)-4-(5-(trifluoromethyl)-1H-pyrrolo[2,3-b]pyridin-3-yl)pyrimidine-5-carbonitrile] was tested, and the Ki was < 3 nM. `N#Cc1cnc(NCc2ccc(-c3cccs3)cc2)nc1-c1c[nH]c2ncc(C(F)(F)F)cc12` [Compound I-54, 2-(4-(thiophen-2-yl)benzylamino)-4-(5-(trifluoromethyl)-1H-pyrrolo[2,3-b]pyridin-3-yl)pyrimidine-5-carbonitrile] was tested, and the Ki was > 40 nM. With `C[C@H](Nc1ncc(C#N)c(-c2c[nH]c3ncc(C(F)(F)F)cc23)n1)c1ccccc1` [Compound I-5, 2-((S)-1-phenylethylamino)-4-(5-(trifluoromethyl)-1H-pyrrolo[2,3-b]pyridin-3-yl)pyrimidine-5-carbonitrile] the Ki was > 40 nM. Work on `C[C@@H](Nc1ncc(C#N)c(-c2c[nH]c3ncc(C(F)(F)F)cc23)n1)c1ccc(OC2CCN(C)CC2)cc1` [Compound I-154, 2-((R)-1-(4-(1-methylpiperidin-4-yloxy)phenyl)ethylamino)-4-(5-(trifluoromethyl)-1H-pyrrolo[2,3-b]pyridin-3-yl)pyrimidine-5-carbonitrile] yielded a Ki of 3 to 40 nM. For `CC[C@@H](C)[C@@H](CO)Nc1ncc(C#N)c(-c2c[nH]c3ncc(C(F)(F)F)cc23)n1` [Compound I-116, 2-((2S,3R)-1-hydroxy-3-methylpentan-2-ylamino)-4-(5-(trifluoromethyl)-1H-pyrrolo[2,3-b]pyridin-3-yl)pyrimidine-5-carbonitrile], the Ki was 3 to 40 nM. With `N#Cc1cnc(Sc2cccc(Br)c2)nc1-c1c[nH]c2ncc(C(F)(F)F)cc12` [II-4, 2-(3-bromophenylthio)-4-(5-(trifluoromethyl)-1H-pyrrolo[2,3-b]pyridin-3-yl)pyrimidine-5-carbonitrile] the Ki was > 40 nM. `C[C@@H](Nc1ncc(C#N)c(-c2c[nH]c3ncc(C(F)(F)F)cc23)n1)[C@H]1CC[C@@H](O)CC1` [Compound I-180, 2-((R)-1-((1s,4S)-4-hydroxycyclohexyl)ethylamino)-4-(5-(trifluoromethyl)-1H-pyrrolo[2,3-b]pyridin-3-yl)pyrimidine-5-carbonitrile] was tested, and the Ki was < 3 nM. For `N#Cc1cnc(NCC2CCN(Cc3ccccc3)CC2)nc1-c1c[nH]c2ncc(C(F)(F)F)cc12` [Compound I-89, 2-((1-benzylpiperidin-4-yl)methylamino)-4-(5-(trifluoromethyl)-1H-pyrrolo[2,3-b]pyridin-3-yl)pyrimidine-5-carbonitrile], the Ki was > 40 nM. Compound `C#CCN1CCC(C(C)Nc2ncc(C#N)c(-c3c[nH]c4ncc(C(F)(F)F)cc34)n2)CC1` (stereo not drawn) [Compound I-178, 2-(1-(1-(prop-2-ynyl)piperidin-4-yl)ethylamino)-4-(5-(trifluoromethyl)-1H-pyrrolo[2,3-b]pyridin-3-yl)pyrimidine-5-carbonitrile] has a Ki of 3 to 40 nM. For `CC(=O)N[C@H]1CC[C@@H]([C@@H](C)Nc2ncc(C#N)c(-c3c[nH]c4ncc(C(F)(F)F)cc34)n2)CC1` [Compound I-209, N-((1S,4s)-4-((1R)-1-(5-cyano-4-(5-(trifluoromethyl)-1H-pyrrolo[2,3-b]pyridin-3-yl)pyrimidin-2-ylamino)ethyl)cyclohexyl)acetamide], the Ki was 3 to 40 nM. `CC(Nc1ncc(C#N)c(-c2c[nH]c3ncc(C(F)(F)F)cc23)n1)C1(F)CCN(C(=O)[C@@H](C)O)CC1` (stereo partly drawn) [Compound I-237, 2-(1-(4-fluoro-1-((R)-2-hydroxypropanoyl)piperidin-4-yl)ethylamino)-4-(5-(trifluoromethyl)-1H-pyrrolo[2,3-b]pyridin-3-yl)pyrimidine-5-carbonitrile] was tested, and the Ki was < 3 nM.
